Results as given in patent US4059586A, “5-Alkoxy-2-alkyl-1,2,3,4-tetrahydroisoquinolene-8-carboxaldehyde and derivatives” (Marion Laboratories, Inc., priority 1976, dated 1977).

What was measured:
[1] = ALD50 in mice (acute toxicity, i.p.); conditions: mouse, in vivo, ip
Experimental: (§1) 5-hydroxy-2-methyl-7,8-cyclopentano[h]-1,2,3,4-tetrahydroisoquinoline has an ALD50 in mice of 100-150 mg/kg i.p. When administered as the base at 50 mg/kg i.p. to hypertensive rats the following percent change in systolic blood pressure was observed: […]

hypertensive rats = assay: percent change in systolic blood pressure in hypertensive rats; type: in vivo; conditions: base at 50 mg/kg i.p.
Experimental: as §1

For `CN1CCc2c(O)cc3c(c2C1)CCC3` [5-hydroxy-2-methyl-7,8-cyclopentano[h]-1,2,3,4-tetrahydroisoquinoline], the LD50 [1] was 100 to 150 mg/kg, the “percent change in systolic blood pressure” value (“percent change” for short) (hypertensive rats; 1 hour) was -18.9% and the “percent change” value (hypertensive rats; 2 hours) was -13.6%. The “percent change” value (hypertensive rats; 4 hours) was -11.2% and the “percent change” value (hypertensive rats; 24 hours) was -4.7%.
